# From PMC7238120, “Strong and Selective Inhibitory Effects of the Biflavonoid Selamariscina A against CYP2C8 and CYP2C9 Enzyme Activities in Human Liver Microsomes” (Pharmaceutics, 2020)
# Like-named read-outs stand apart in the source and are kept apart here.
# Assays:
# [1] = cited from earlier work
# UGT1A9 = target: T1, UGT1A9 (Homo sapiens, UniProt O60656); experiment: Inhibition of UGT1A9 (mycophenolic acid glucuronidation) in human liver microsomes; format: in vitro ADME; settings: substrate mycophenolic acid; HLMs; average ± standard error
# T1 construct: tissue XenoTech XTreme 200; host or cells: pooled human liver microsomes
# T1 sequence (O60656 26-530): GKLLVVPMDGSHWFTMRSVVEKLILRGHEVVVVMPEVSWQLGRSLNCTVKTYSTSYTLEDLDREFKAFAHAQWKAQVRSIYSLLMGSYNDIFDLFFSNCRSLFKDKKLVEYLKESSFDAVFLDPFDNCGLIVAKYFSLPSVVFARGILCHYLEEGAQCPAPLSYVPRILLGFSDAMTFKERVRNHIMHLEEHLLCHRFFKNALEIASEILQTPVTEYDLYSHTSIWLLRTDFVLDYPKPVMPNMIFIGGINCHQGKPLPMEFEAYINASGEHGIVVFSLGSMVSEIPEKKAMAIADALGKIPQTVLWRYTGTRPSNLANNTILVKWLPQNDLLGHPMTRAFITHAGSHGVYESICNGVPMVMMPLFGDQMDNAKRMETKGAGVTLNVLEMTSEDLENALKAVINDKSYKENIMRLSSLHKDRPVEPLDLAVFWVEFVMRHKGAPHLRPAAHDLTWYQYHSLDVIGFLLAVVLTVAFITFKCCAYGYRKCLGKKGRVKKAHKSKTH
# Protocol: (§1) The ability of selamariscina A to inhibit the metabolism of six UGT enzyme probe substrates was evaluated using previously developed methods with minor modifications. The microsomal incubation was performed by dividing the non-interactive substrate cocktail sets (set A included SN-38 for UGT1A1, CDCA for UGT1A3 and TFP for UGT1A4 while set B included N-SER for UGT1A6, MPA for UGT1A9 and NX for UGT2B7) (Table 2). In brief, HLMs (0.25 mg/mL) were activated by incubation in the presence of alamethicin (25 µg/mL) for 15 min on ice. After the addition of UGT probe substrates and inhibitor (0, 0.5, 2, 5, 20 and 50 μM), the incubation mixtures were pre-incubated at 37 °C for 5 min. […] After centrifugation at 18,000 g (5 min, 4 °C), aliquots of supernatants were analyzed by LC–MS/MS. […]
# (§2) All metabolites and the IS were separated on a Kinetex XB-C18 column (100 × 2.10 mm, 2.6 μm, 100 Å; Phenomenex, Torrance, CA, USA) and analyzed using a Shimadzu LCMS 8060 triple-quadrupole mass spectrometer coupled with a Nexera X2 ultra high-performance liquid chromatography system (Shimadzu, Kyoto, Japan) equipped with an electrospray ionization interface. […] Quantitation was conducted in selected reaction monitoring (SRM) modes with the precursor-to-product ion transition for each metabolite (Table 1 and Table 2).
# (§3) We analyzed the data with Shimadzu LabSolution LC–MS software. […]
# UGT1A6 = target: T2, UGT1A6 (Homo sapiens, UniProt P19224); experiment: Inhibition of UGT1A6 (N-acetylserotonin glucuronidation) in human liver microsomes; format: in vitro ADME; settings: substrate N-acetylserotonin; HLMs; average ± standard error
# T2 construct: tissue XenoTech XTreme 200; host or cells: pooled human liver microsomes
# T2 sequence (P19224 27-532): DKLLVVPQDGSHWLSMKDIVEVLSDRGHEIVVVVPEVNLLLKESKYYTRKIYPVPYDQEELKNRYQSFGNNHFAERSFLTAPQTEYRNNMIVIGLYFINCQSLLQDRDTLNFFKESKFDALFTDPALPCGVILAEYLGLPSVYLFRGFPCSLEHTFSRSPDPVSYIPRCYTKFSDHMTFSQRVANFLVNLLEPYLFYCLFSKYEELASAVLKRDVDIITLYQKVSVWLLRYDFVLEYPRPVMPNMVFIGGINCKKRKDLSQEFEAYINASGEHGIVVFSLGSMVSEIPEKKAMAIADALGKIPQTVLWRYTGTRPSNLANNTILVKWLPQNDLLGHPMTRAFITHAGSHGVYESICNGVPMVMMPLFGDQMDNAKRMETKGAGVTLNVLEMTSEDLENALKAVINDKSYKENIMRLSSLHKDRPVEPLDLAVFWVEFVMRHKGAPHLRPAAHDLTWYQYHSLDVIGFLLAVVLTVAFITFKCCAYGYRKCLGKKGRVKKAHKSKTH
# Protocol: as §1, §2, §3
# CYP2C8 = target: T3, CYP2C8 (Homo sapiens, UniProt P10632); experiment: Inhibition of CYP2C8-catalyzed rosiglitazone 5-hydroxylation in human liver microsomes; format: in vitro ADME; set-up: incubation mixtures containing pooled human liver microsomes (HLMs, XTreme 200, XenoTech); tissue XenoTech XTreme 200; host or cells: pooled human liver microsomes
# T3 sequence (P10632 1-490): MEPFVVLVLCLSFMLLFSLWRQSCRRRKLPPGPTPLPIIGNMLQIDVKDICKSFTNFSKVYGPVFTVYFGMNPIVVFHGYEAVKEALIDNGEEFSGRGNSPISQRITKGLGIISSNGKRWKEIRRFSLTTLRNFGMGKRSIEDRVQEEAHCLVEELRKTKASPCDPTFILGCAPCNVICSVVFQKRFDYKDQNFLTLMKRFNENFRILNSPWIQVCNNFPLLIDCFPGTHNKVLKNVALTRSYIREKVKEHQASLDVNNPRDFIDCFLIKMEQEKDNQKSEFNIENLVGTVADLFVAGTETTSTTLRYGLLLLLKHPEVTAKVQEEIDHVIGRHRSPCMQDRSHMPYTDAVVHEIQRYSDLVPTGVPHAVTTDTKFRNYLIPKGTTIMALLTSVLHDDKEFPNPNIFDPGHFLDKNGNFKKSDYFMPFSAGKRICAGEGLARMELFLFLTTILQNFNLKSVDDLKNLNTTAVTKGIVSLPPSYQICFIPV
# Source text: We used HLMs to determine the mechanisms and constants (Ki values) for […] A inhibition of CYP1A2, CYP2B6, CYP2C8, CYP2C9 and CYP3A. […] The substrates were used at concentrations approximately near to their respective Km values. […] The other conditions were the same as in the cytochrome P450 inhibition study. […] Phenomenex, Torrance, CA, USA) and analyzed using a Shimadzu LCMS 8060 triple-quadrupole mass spectrometer coupled with a Nexera X2 ultra high-performance liquid chromatography system (Shimadzu, Kyoto, Japan) equipped with an electrospray ionization interface. The mobile phase consisted of 0.1% formic acid in water (A) and 0.1% formic acid in acetonitrile (B). […] The flow rate was 0.2 mL/min. Electrospray ionization was performed in positive-ion mode at 4000 V or in negative-ion mode at -3500 V. The optimum operating conditions were determined as follows: vaporizer temperature, 300 °C; capillary temperature, 350 °C; collision gas (argon) pressure, 1.5 mTorr. Quantitation was conducted in selected reaction monitoring (SRM) modes with the precursor-to-product ion transition for each metabolite (Table 1 and Table 2). We analyzed the data with Shimadzu LabSolution LC-MS software. The IC50 values were calculated by WinNonlin software (Pharsight, Mountain View, CA, USA). […]
IC50 (UGT1A9) [µM],IC50 (UGT1A6) [µM],"Ki (CYP2C8; HLMs, average ± standard error, triplicate) [µM]","Mode of Inhibition, CYP2C8 rosiglitazone (CYP2C8; microsomes)",Structure (SMILES),"Cmax ([1]; liposome-based Selaginella doderleinii Hieron extracts 200 mg/kg, read-out: Cmax after liposome-based extract) [µM]","Cmax, times higher than control ([1]; liposome-based extracts 200 mg/kg versus control) [times]",Maximum concentration in rat blood ([1]; single oral dose of Selaginella doderleinii Hieron extracts 200 mg/kg) [µM],Maximum concentration in rat blood ([1]; single oral dose of Selaginella doderleinii Hieron extracts 600 mg/kg) [µM]
,,,,O=c1cc(-c2ccc(O)c(-c3c(O)cc(O)c4c(=O)cc(-c5ccc(O)cc5)oc34)c2)oc2cc(O)cc(O)c12 [amentoflavone],0.22,5.4,0.041,0.063
40.4 ± 11.1,46.1 ± 11.7,0.01 ± 0.003,"Noncompetitive, partial",O=C1CC(c2cc(-c3c(O)ccc4c(=O)cc(-c5ccc(O)cc5)oc34)c(O)cc2O)Oc2cc(O)cc(O)c21 (centres unmarked) [selamariscina A],,,,
